Where “and” joins values, the source holds several entries; their conditions need not be identical. Identical values can stand only once. Like-named read-outs stand apart in the source and are kept apart here.
Assays:
CDK12–cyclin K and DDB1 = biological target: T1, CDK12–cyclin K and DDB1 (Homo sapiens, UniProt Q16531+Q9NYV4, K965R); experiment: TR-FRET ternary complex formation assay (compound titration); type: binding; details: for TR-FRET signal at compound concentration: replicate titrations
T1 construct: His6–CDK12 (a.a. 713–1,052); full-length or beta-propeller B domain deletion (ΔBPB: a.a. 396–705 deleted) constructs of His6–DDB1ΔBPB, StrepII–Avi–DDB1, or His6–Spy–DDB1; made in house; host or cells: Trichoplusia ni High Five insect cells (baculovirus)
In short: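 Delayed (70 μs) time-resolved read; FRET computed as 520 nm over 490 nm emission.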

[1] = test system: cyclin K–eGFP degradation reporter; experiment: Cyclin K reporter stability analysis (dual-color cyclin K–eGFP reporter); type: cell-based, human; details: Supplementary Table 2; HEK293T cycK-eGFP reporter, 5 h; read-out: Cellular assays DC50
Experimental: HEK293T–Cas9 cells expressing the cyclin K–eGFP degradation reporter were resuspended at 1 × 10^6 ml^−1 and 50 µl of cell suspension was seeded in non-cell-culture-treated 384-well plates. Shortly after, cells were treated with drug or DMSO for 5 h. […] The fluorescent signal was quantified by flow cytometry (LSRFortessa flow cytometer, BD Biosciences). Using FlowJo (flow cytometry analysis software, BD Biosciences), the geometric mean of the eGFP and mCherry fluorescent signal for round and mCherry-positive cells was calculated. The ratio of eGFP to mCherry was normalized to the average of three DMSO-treated controls.

HEK293T cells = experiment: Drug sensitivity assay (CellTiter-Glo viability) with or without MLN4924 pretreatment; type: cell-based, human; details: Supplementary Table 2; for EC50: Homo sapiens, HEK-293T, HEK293T viability, 72 h, compound alone, read-out: Cellular assays EC50; for Toxicity rescue: MLN4924-mediated cytotoxicity rescue, 10 µM used where n.d.
In short: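 Viability of HEK293T–Cas9 cells was compared after 3-day drug treatment with or without 100 nM MLN4924 pretreatment (2 h, versus DMSO). Values are CellTiter-Glo signals relative to DMSO controls.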

[2] = Supplementary Table 2, read-out: TR-FRET EC50 TR-FRET
[3] = compound concentration 79.2001 nM
[4] = compound concentration 158.4 nM
[5] = compound concentration 309.6 nM
[6] = compound concentration 626.401 nM
[7] = compound concentration 1252.8 nM
[8] = compound concentration 9936.01 nM
[9] = compound concentration 20016 nM
[10] = in vitro complex formation, 50 nM CDK12–cyclin K, 100 nM DDB1, text and figures, read-out: TR-FRET EC50
[11] = compound concentration 0.468 nM
[12] = compound concentration 7.92001 nM
[13] = compound concentration 15.84 nM
[14] = compound concentration 30.96 nM
[15] = compound concentration 62.6401 nM
[16] = compound concentration 125.28 nM
[17] = compound concentration 244.8 nM
[18] = compound concentration 993.601 nM
[19] = compound concentration 2001.6 nM

T1 sequence (Q9NYV4 713-1052 K965R): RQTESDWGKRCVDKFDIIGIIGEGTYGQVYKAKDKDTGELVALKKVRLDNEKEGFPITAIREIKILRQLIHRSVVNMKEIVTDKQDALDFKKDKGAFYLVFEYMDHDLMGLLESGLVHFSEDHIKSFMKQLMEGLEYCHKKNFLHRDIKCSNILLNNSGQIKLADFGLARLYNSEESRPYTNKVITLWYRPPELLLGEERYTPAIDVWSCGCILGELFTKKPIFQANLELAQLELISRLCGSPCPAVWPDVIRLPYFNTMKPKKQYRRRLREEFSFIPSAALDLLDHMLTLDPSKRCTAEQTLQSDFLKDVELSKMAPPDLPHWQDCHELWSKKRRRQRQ
T1 sequence (O75909 1-267 partner): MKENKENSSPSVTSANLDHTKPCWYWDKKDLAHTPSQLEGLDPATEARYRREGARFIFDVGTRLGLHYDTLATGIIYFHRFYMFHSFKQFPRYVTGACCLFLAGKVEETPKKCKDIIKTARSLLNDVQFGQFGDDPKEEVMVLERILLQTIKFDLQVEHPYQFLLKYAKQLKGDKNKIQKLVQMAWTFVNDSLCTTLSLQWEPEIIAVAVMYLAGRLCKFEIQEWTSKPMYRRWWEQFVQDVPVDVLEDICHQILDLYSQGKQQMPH
T1 sequence (Q16531 whole entry): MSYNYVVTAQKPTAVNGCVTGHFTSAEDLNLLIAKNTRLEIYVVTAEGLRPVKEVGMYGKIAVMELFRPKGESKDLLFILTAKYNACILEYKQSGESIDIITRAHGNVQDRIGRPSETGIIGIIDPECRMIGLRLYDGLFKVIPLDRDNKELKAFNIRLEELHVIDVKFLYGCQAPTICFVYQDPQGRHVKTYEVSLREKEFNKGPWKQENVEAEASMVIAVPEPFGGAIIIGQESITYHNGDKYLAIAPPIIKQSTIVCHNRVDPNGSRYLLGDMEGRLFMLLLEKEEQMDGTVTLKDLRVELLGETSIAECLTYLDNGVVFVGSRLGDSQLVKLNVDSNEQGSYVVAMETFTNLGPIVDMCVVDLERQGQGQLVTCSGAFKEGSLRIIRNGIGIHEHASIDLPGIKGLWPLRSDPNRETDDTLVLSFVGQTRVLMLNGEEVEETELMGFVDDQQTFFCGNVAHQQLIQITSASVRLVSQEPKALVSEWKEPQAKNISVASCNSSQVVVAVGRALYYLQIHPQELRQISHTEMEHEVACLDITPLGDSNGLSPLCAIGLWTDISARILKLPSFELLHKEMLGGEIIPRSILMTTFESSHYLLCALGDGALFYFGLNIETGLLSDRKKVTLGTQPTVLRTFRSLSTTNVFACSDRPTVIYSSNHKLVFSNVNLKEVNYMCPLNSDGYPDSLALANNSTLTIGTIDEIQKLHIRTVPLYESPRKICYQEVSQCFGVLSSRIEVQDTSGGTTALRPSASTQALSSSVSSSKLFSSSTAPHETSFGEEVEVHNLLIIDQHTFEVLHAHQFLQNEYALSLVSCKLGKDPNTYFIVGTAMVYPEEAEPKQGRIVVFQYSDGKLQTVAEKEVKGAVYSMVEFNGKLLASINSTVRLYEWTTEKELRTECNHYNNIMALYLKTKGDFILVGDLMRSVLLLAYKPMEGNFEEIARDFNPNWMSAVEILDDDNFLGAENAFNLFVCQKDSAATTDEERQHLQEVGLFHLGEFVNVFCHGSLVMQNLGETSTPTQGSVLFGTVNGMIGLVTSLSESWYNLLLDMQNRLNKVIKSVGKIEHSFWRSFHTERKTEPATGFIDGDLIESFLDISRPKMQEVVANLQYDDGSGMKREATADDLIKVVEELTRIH

What does the source list for `CC[C@H](CO)Nc1nc(NCCCCCCc2ccccc2)c2ncn(C(C)C)c2n1` [DS10]?
EC50 (CDK12–cyclin K and DDB1; [2]): 595 nM; fold lower affinity than DS11 (CDK12–cyclin K and DDB1; TR-FRET complex formation): 5-10 fold; TR-FRET signal at compound concentration (CDK12–cyclin K and DDB1; compound concentration 4.68 nM): 0.1344 and 0.1608; TR-FRET signal at compound concentration (CDK12–cyclin K and DDB1; compound concentration 21.6 nM): 0.1474 and 0.1725; TR-FRET signal at compound concentration (CDK12–cyclin K and DDB1; compound concentration 36 nM): 0.1731 and 0.2063; TR-FRET signal at compound concentration (CDK12–cyclin K and DDB1; [3]): 0.1998 and 0.2552; TR-FRET signal at compound concentration (CDK12–cyclin K and DDB1; [4]): 0.2546 and 0.3178; TR-FRET signal at compound concentration (CDK12–cyclin K and DDB1; [5]): 0.334 and 0.4076; TR-FRET signal at compound concentration (CDK12–cyclin K and DDB1; [6]): 0.4243 and 0.5117; TR-FRET signal at compound concentration (CDK12–cyclin K and DDB1; [7]): 0.5049 and 0.5958; TR-FRET signal at compound concentration (CDK12–cyclin K and DDB1; compound concentration 2448 nM): 0.6152 and 0.6779; TR-FRET signal at compound concentration (CDK12–cyclin K and DDB1; [8]): 0.7339 and 0.7716; TR-FRET signal at compound concentration (CDK12–cyclin K and DDB1; [9]): 0.6991 and 0.7616; EC50 (CDK12–cyclin K and DDB1; [10]): 595 ± 91 nM; DC50 [1]: > 10000 nM; EC50 (HEK293T cells): > 10000 nM; Toxicity rescue (HEK293T cells): 0%

With `CC[C@H](CO)Nc1nc(NCCCc2ccccc2)c2ncn(C(C)C)c2n1` [DS11] as the molecule, how does the EC50 (CDK12–cyclin K and DDB1; [2]) read?
Its EC50 is 56.8 nM.

What about the TR-FRET signal (CDK12–cyclin K and DDB1; [11]) of the same molecule?
The TR-FRET signal was 0.241 and 0.2489.

And the “TR-FRET signal, individual replicate” value (CDK12–cyclin K and DDB1; [11])?
The value was 0.241 and 0.2489.

And the “TR-FRET signal at compound concentration” value (CDK12–cyclin K and DDB1; [11])?
The value was 0.241 and 0.2489.

What about the TR-FRET signal (CDK12–cyclin K and DDB1; compound concentration 2.16 nM) of the same molecule?
The TR-FRET signal was 0.2983 and 0.2991.

And the “TR-FRET signal, individual replicate” value (CDK12–cyclin K and DDB1; compound concentration 2.16 nM)?
Its value is 0.2983 and 0.2991.

And the “TR-FRET signal at compound concentration” value (CDK12–cyclin K and DDB1; compound concentration 2.16 nM)?
Its value is 0.2983 and 0.2991.

What about the TR-FRET signal (CDK12–cyclin K and DDB1; compound concentration 3.6 nM) of the same molecule?
Its TR-FRET signal is 0.374 and 0.3698.

What about the “TR-FRET signal, individual replicate” value (CDK12–cyclin K and DDB1; compound concentration 3.6 nM) of the same molecule?
Its value is 0.374 and 0.3698.

What about the “TR-FRET signal at compound concentration” value (CDK12–cyclin K and DDB1; compound concentration 3.6 nM) of the same molecule?
The value was 0.374 and 0.3698.

What about the TR-FRET signal (CDK12–cyclin K and DDB1; [12]) of the same molecule?
The TR-FRET signal was 0.5495 and 0.5492.

What about the “TR-FRET signal, individual replicate” value (CDK12–cyclin K and DDB1; [12]) of the same molecule?
Its value is 0.5495 and 0.5492.

What about the “TR-FRET signal at compound concentration” value (CDK12–cyclin K and DDB1; [12]) of the same molecule?
Its value is 0.5495 and 0.5492.

What about the TR-FRET signal (CDK12–cyclin K and DDB1; [13]) of the same molecule?
Its TR-FRET signal is 0.8302 and 0.8222.

What about the “TR-FRET signal, individual replicate” value (CDK12–cyclin K and DDB1; [13]) of the same molecule?
The value was 0.8302 and 0.8222.

And the “TR-FRET signal at compound concentration” value (CDK12–cyclin K and DDB1; [13])?
The value was 0.8302 and 0.8222.

What about the TR-FRET signal (CDK12–cyclin K and DDB1; [14]) of the same molecule?
Its TR-FRET signal is 1.2679 and 1.278.

What about the “TR-FRET signal, individual replicate” value (CDK12–cyclin K and DDB1; [14]) of the same molecule?
The value was 1.2679 and 1.278.

And the “TR-FRET signal at compound concentration” value (CDK12–cyclin K and DDB1; [14])?
The value was 1.2679 and 1.278.

What about the TR-FRET signal (CDK12–cyclin K and DDB1; [15]) of the same molecule?
Its TR-FRET signal is 1.798 and 1.8918.

What about the “TR-FRET signal, individual replicate” value (CDK12–cyclin K and DDB1; [15]) of the same molecule?
Its value is 1.798 and 1.8918.

What about the “TR-FRET signal at compound concentration” value (CDK12–cyclin K and DDB1; [15]) of the same molecule?
The value was 1.798 and 1.8918.

What about the TR-FRET signal (CDK12–cyclin K and DDB1; [16]) of the same molecule?
Its TR-FRET signal is 2.382 and 2.496.

What about the “TR-FRET signal, individual replicate” value (CDK12–cyclin K and DDB1; [16]) of the same molecule?
Its value is 2.382 and 2.496.

What about the “TR-FRET signal at compound concentration” value (CDK12–cyclin K and DDB1; [16]) of the same molecule?
The value was 2.382 and 2.496.

And the TR-FRET signal (CDK12–cyclin K and DDB1; [17])?
The TR-FRET signal was 2.742 and 2.9079.

What about the “TR-FRET signal, individual replicate” value (CDK12–cyclin K and DDB1; [17]) of the same molecule?
The value was 2.742 and 2.9079.

What about the “TR-FRET signal at compound concentration” value (CDK12–cyclin K and DDB1; [17]) of the same molecule?
Its value is 2.742 and 2.9079.

What about the TR-FRET signal (CDK12–cyclin K and DDB1; [18]) of the same molecule?
The TR-FRET signal was 3.1224 and 3.3313.

And the “TR-FRET signal, individual replicate” value (CDK12–cyclin K and DDB1; [18])?
Its value is 3.1224 and 3.3313.

What about the “TR-FRET signal at compound concentration” value (CDK12–cyclin K and DDB1; [18]) of the same molecule?
The value was 3.1224 and 3.3313.

And the TR-FRET signal (CDK12–cyclin K and DDB1; [19])?
The TR-FRET signal was 3.176 and 3.283.

And the “TR-FRET signal, individual replicate” value (CDK12–cyclin K and DDB1; [19])?
Its value is 3.176 and 3.283.

And the “TR-FRET signal at compound concentration” value (CDK12–cyclin K and DDB1; [19])?
The value was 3.176 and 3.283.

What about the EC50 (CDK12–cyclin K and DDB1; [10]) of the same molecule?
The EC50 was 57 ± 3 nM.

What about the EC50 (CDK12–cyclin K and DDB1; sheet MOESM7, read-out: log TR-FRET EC50 (converted)) of the same molecule?
The EC50 was 56.8 nM.

What about the DC50 [1] of the same molecule?
Its DC50 is greater than 10000 nM.

And the EC50 (HEK293T cells)?
Its EC50 is greater than 10000 nM.

What about the Toxicity rescue (HEK293T cells) of the same molecule?
The Toxicity rescue was 0%.

What does the source list for `CC[C@H](CO)Nc1nc(NCC2CCCCC2)c2ncn(C(C)C)c2n1` [DS12]?
EC50 (CDK12–cyclin K and DDB1; [2]): 774 nM; TR-FRET signal, individual replicate (CDK12–cyclin K and DDB1; compound concentration 4.68 nM): 0.1383 and 0.1554; TR-FRET signal, individual replicate (CDK12–cyclin K and DDB1; compound concentration 21.6 nM): 0.1534 and 0.1726; TR-FRET signal, individual replicate (CDK12–cyclin K and DDB1; compound concentration 36 nM): 0.171 and 0.1959; TR-FRET signal, individual replicate (CDK12–cyclin K and DDB1; [3]): 0.2152 and 0.2381; TR-FRET signal, individual replicate (CDK12–cyclin K and DDB1; [4]): 0.2801 and 0.3063; TR-FRET signal, individual replicate (CDK12–cyclin K and DDB1; [5]): 0.3618 and 0.4127; TR-FRET signal, individual replicate (CDK12–cyclin K and DDB1; [6]): 0.3596 and 0.5492; TR-FRET signal, individual replicate (CDK12–cyclin K and DDB1; [7]): 0.6021 and 0.6861; TR-FRET signal, individual replicate (CDK12–cyclin K and DDB1; compound concentration 2448 nM): 0.7207 and 0.8094; TR-FRET signal, individual replicate (CDK12–cyclin K and DDB1; [8]): 0.7638 and 0.9453; TR-FRET signal, individual replicate (CDK12–cyclin K and DDB1; [9]): 0.8451 and 0.9714; DC50 [1]: > 10000 nM; EC50 (HEK293T cells): > 10000 nM; Toxicity rescue (HEK293T cells): 0%

Source: publication PMC10746543, “Design principles for cyclin K molecular glue degraders” (Nature Chemical Biology, 2023)
